Among the data in patent US9938267B2, “Heterocyclic inhibitors of glutaminase” (Calithera Biosciences, Inc., priority 2011, dated 2018) are IC50 values, retold here.

The test system of the first assay is P493-6 (myc "on") cells. Description: Cell proliferation assay (72 hrs, Cell Titer Glo or Viacount FACS). Type of assay: cell-based. The settings on record: P493-6 (myc on) cells, 72 hrs; read-out: Cell prolif P493 IC50. The method, then:
P493-6 (myc “on”) cells were maintained in growth media (RPMI-1640, 10% FBS, 2 mM glutamine, 100 units/ml Penicillin and 100 μg/ml streptomycin) at 37° C. with 5% CO2. For compound assay, P493-6 cells were plated in 96-well V-bottom plates on the day of compound addition in 50 μl of growth media at a cell density of 200,000 cells/ml (10,000 cells/well). Compounds were serially diluted in 100% DMSO at 200-times the final concentration. Compounds were diluted 100-fold into growth media and then 50 μl of this mixture was added to cell plates making the final concentration of DMSO 0.5%. Cells were incubated with compound for 72 hrs at 37° C. with 5% CO2 and analyzed for antiproliferative effects either by Cell Titer Glo (Promega) or FACS analysis using the Viacount (Millipore) kit on the Guava instrument.
For orientation: Cellular ATP, detected with luciferase, serves as a proxy for viable cell number.
With `CC1(CC(=O)Nc2ccc(CCCCc3nnc(NC(=O)Cc4cccc(CNC(=O)OC(C)(C)C)c4)s3)nn2)COC(C)(C)OC1` [Compound 529], the IC50 came to 160 nM.
For `CCCC(=O)OCN(C(=O)C(CO)c1cccc(CNC(=O)OC(C)(C)C)c1)c1nnc(CCCCc2ccc(NC(=O)Cc3ccccc3)nn2)s1` (stereo not drawn) [Compound 567], the IC50 came out at 21 nM.
Still for that read-out and setting: the result for `CC(C(=O)Nc1nnc(CCCCc2ccc(NC(=O)Cc3ccccc3)nn2)s1)c1ccc(F)c(CNC(=O)OC(C)(C)C)c1` (stereo not drawn) [Compound 568] reads 28 nM.
On the same count and under the same terms, under `CCNC(=O)CC(C)c1cccc(CC(=O)Nc2ccc(CCCCc3nnc(NC(=O)Cc4cccc(OC(F)(F)F)c4)s3)nn2)c1` (stereo not drawn) [Compound 596] stands 330 nM; under `O=C(Cc1ccc(OC(F)(F)F)cc1)Nc1ccc(CCCCc2nnc(NC(=O)Cc3ccccc3)s2)nn1` [Compound 615], 12 nM; under `O=C(Cc1cccc(OC(F)(F)F)c1)Nc1ccc(CCCCc2nnc(NC(=O)Cn3c(CN4CCOCC4)nc4ccccc43)s2)nn1` [Compound 702], 310 nM.

The assay is the same for the next values; noted with them: P493-6, read-out: Cell prolif P493 72 h IC50; P493 cells, 72 h.
Consider `O=C(C[C@@H](O)c1ccccc1)Nc1nnc(CCSCCc2nnc(NC(=O)C[C@@H](O)C3CCCCC3)s2)s1` [Compound 126], for which the IC50 worked out at 12000 nM.
Still for that read-out and setting: the result for `CCOc1ccccc1CC(=O)Nc1nnc(CCCCc2nnc(NC(=O)Cc3ccccc3OC)s2)s1` [Compound 300] reads 160 nM; that for `CCOC(=O)Nc1nnc(CCCCc2nnc(NC(=O)Cc3ccccc3)s2)s1` [Compound 369], 1900 nM.

Still in this assay, the particulars now being: read-out: Cell prolif P493 72 h IC50; P493 cells, 72 h.
As to `COC(C(=O)Nc1nnc(CCSCCc2nnc(NC(=O)C(OC)c3ccccc3)s2)s1)c1ccccc1` (stereo not drawn) [Compound 67], the IC50 was 1800 nM.
Regarding `O=C(Cc1cccc(OCCO)c1)Nc1nnc(CCSCCc2nnc(NC(=O)Cc3cccc(OCCO)c3)s2)s1` [Compound 236], the IC50 turned out to be 1400 nM.
Same read-out and setting: the result for `O=C(Cc1cccs1)Nc1nnc(CCSCc2nnc(NC(=O)Cc3cccs3)s2)s1` [Compound 237] reads 250 nM; that for `O=C(Cc1cccc(OCCN2CCOCC2)c1)Nc1nnc(CCSCCc2nnc(NC(=O)Cc3cccc(OCCN4CCOCC4)c3)s2)s1` [Compound 240], 1300 nM; that for `O=C(CN1C(=O)OC[C@H]1c1ccccc1)Nc1nnc(CCSCCc2nnc(NC(=O)CN3C(=O)OC[C@H]3c3ccccc3)s2)s1` [Compound 243], 33000 nM.
Same read-out and setting: the result for `CCOC(=O)Nc1nnc(CCCCc2nnc(NC(=O)Cc3ccccc3)s2)s1` [Compound 244] reads 1700 nM; that for `COc1ccccc1CC(=O)Nc1nnc(CCSCCc2nnc(NC(=O)C(CO)c3ccccc3OC)s2)s1` (stereo not drawn) [Compound 246], 1600 nM.
Still for that read-out and setting: the result for `Cc1cccc(CC(=O)Nc2nnc(CCSCCc3nnc(NC(=O)Cc4cccc(C)c4)s3)s2)c1` [Compound 247] reads 830 nM; that for `COc1ccccc1CC(=O)Nc1nnc(CCSCc2nnc(NC(=O)Cc3ccccc3OC)s2)s1` [Compound 249], 160 nM.
Take `COc1cccc(CC(=O)Nc2nnc(CCSCc3nnc(NC(=O)Cc4cccc(OC)c4)s3)s2)c1` [Compound 250]: the IC50 amounted to 140 nM.
Still for that read-out and setting: the result for `COc1cccc(C(CO)C(=O)Nc2nnc(CCCCc3nnc(NC(=O)C(CO)c4cccc(OC)c4)s3)s2)c1` (stereo not drawn) [Compound 257] reads 73 nM; that for `COc1cccc(C(CO)C(=O)Nc2nnc(CCSCc3nnc(NC(=O)C(CO)c4cccc(OC)c4)s3)s2)c1` (stereo not drawn) [Compound 258], 180 nM.
On the same count and under the same terms, the result for `COc1cccc(CC(=O)Nc2nnc(CCSCCc3nnc(NC(=O)Cc4cccc(OC)c4OC)s3)s2)c1OC` [Compound 259] reads 570 nM; that for `COc1cccc(CC(=O)Nc2nnc(CCCCc3nnc(NC(=O)Cc4cccc(OC)c4OC)s3)s2)c1OC` [Compound 260], 84 nM; that for `CC(C(=O)Nc1nnc(CCSCCc2nnc(NC(=O)C(C)c3ccccc3Cl)s2)s1)c1ccccc1Cl` (stereo not drawn) [Compound 261], 2600 nM.
Still for that read-out and setting: under `Cc1ccccc1C(C)C(=O)Nc1nnc(CCSCCc2nnc(NC(=O)C(C)c3ccccc3C)s2)s1` (stereo not drawn) [Compound 262] stands 3100 nM; under `COc1ccccc1CC(=O)Nc1nnc(CCCCc2nnc(NC(=O)Cc3ccccc3OC)s2)s1` [Compound 264], 10 nM.
`O=C(Cc1cccc(OCCN2CCOCC2)c1)Nc1nnc(CCSCc2nnc(NC(=O)Cc3cccc(OCCN4CCOCC4)c3)s2)s1` [Compound 267]: the IC50 was 640 nM.
`O=C(Cc1ccc2ncccc2c1)Nc1nnc(CCSCCc2nnc(NC(=O)Cc3ccc4ncccc4c3)s2)s1` [Compound 268]: the IC50 came out at 5400 nM.
Same read-out and setting: the result for `O=C(Cc1ccc2ncccc2c1)Nc1nnc(CCCCc2nnc(NC(=O)Cc3ccc4ncccc4c3)s2)s1` [Compound 269] reads 520 nM.
Same read-out and setting: under `O=C(Cc1cccc(Br)c1)Nc1nnc(CCSCCc2nnc(NC(=O)Cc3cccc(Br)c3)s2)s1` [Compound 270] stands 850 nM; under `CC(C(=O)Nc1nnc(CCCCc2nnc(NC(=O)C(C)c3ccccc3Cl)s2)s1)c1ccccc1Cl` (stereo not drawn) [Compound 274], 680 nM; under `CC(C)(C)OC(=O)N1CCN(Cc2cccc(CC(=O)Nc3nnc(CCSCc4nnc(NC(=O)Cc5cccc(CN6CCN(C(=O)OC(C)(C)C)CC6)c5)s4)s3)c2)CC1` [Compound 275], 340 nM.
Same read-out and setting: the result for `O=C(Cc1cccc(-n2cccn2)c1)Nc1nnc(CCCCc2nnc(NC(=O)Cc3cccc(-n4cccn4)c3)s2)s1` [Compound 285] reads 140 nM; that for `O=C(O)Cc1cccc(CC(=O)Nc2nnc(CCCCc3nnc(NC(=O)Cc4cccc(CC(=O)O)c4)s3)s2)c1` [Compound 313], 94000 nM.
`CC(C)(C)OC(=O)Nc1cccc(CC(=O)Nc2nnc(CCCCc3nnc(NC(=O)Cc4cccc(NC(=O)OC(C)(C)C)c4)s3)s2)c1` [Compound 327]: the IC50 is 150 nM.
As for `Nc1cccc(CC(=O)Nc2nnc(CCCCc3nnc(NC(=O)Cc4cccc(N)c4)s3)s2)c1` [Compound 329], the IC50 is 450 nM.
On the same count and under the same terms, under `O=C(Cc1cccc(Cn2cccn2)c1)Nc1nnc(CCCCc2nnc(NC(=O)Cc3cccc(Cn4cccn4)c3)s2)s1` [Compound 362] stands 54 nM; under `O=C(Cc1cccc(-n2ccnc2)c1)Nc1nnc(CCCCc2nnc(NC(=O)Cc3cccc(-n4ccnc4)c3)s2)s1` [Compound 363], above 20000 nM.

The target in the next assay is recombinant form of Glutaminase 1 (GAC) (Homo sapiens, UniProt O94925). Description: Recombinant enzyme assay (GAC, GDH-coupled absorbance, no preincubation). Type of assay: biochemical. The settings on record: read-out: GAC Delta N2 IC50 no preinc. The method, then: Enzymatic reaction was started with the addition of 50 μL of enzyme solution (50 mM Tris-HCl pH 8.0, 0.2 mM EDTA, 150 mM K2HPO4, 0.1 mg/ml BSA, 1 mM DTT, 10 ppm antifoam, 4 units/ml GDH, 4 mM adenosine diphosphate, and 4 nM GAC) and read in a Molecular Devices M5 plate reader at 20° C. The plate reader was configured to read absorbance (λ=340 nm) in kinetic mode for 15 minutes. Data was recorded as milli-absorbance units per minute and slopes were compared to a control compound and a DMSO-only control on the same plate. Compounds with slopes less than the DMSO control were considered inhibitors and plate variability was assessed using the control compound.
As for `CC[C@](O)(C(=O)Nc1nnc(CCCCc2nnc(NC(=O)[C@@](O)(CC)c3ccccc3)s2)s1)c1ccccc1` (single isomer, unassigned) [Compound 144], the IC50 was above 20000 nM.
Still for that read-out and setting: the result for `O=C(Cc1nnc(CCSCCc2nnc(NC(=O)C3CCOCC3)s2)s1)C1CCOCC1` [Compound 108] reads above 20000 nM; that for `O=C(Nc1nnc(CCCCc2nnc(NC(=O)C3COc4ccccc43)s2)s1)C1COc2ccccc21` (stereo not drawn) [Compound 135], 300 nM.
On the same count and under the same terms, the result for `O=C(N[C@@H](CO)C(=O)Nc1nnc(CCSCCc2nnc(NC(=O)[C@H](CO)NC(=O)OCc3ccccc3)s2)s1)OCc1ccccc1` [Compound 138] reads 750 nM; that for `CC(C)(C)c1ccc(CC(=O)Nc2nnc(CCCCc3nnc(NC(=O)Cc4ccc(C(C)(C)C)cc4)s3)s2)cc1` [Compound 191], above 20000 nM; that for `CC(C)(C)OC(=O)Nc1ccc(CC(=O)Nc2nnc(CCCCc3nnc(NC(=O)Cc4ccc(NC(=O)OC(C)(C)C)cc4)s3)s2)cc1` [Compound 192], above 20000 nM.
On the same count and under the same terms, the result for `O=C(Cc1cc2ccccc2o1)Nc1nnc(CCSCCc2nnc(NC(=O)Cc3cc4ccccc4o3)s2)s1` [Compound 193] reads 3400 nM; that for `COc1cc(CC(=O)Nc2nnc(CCSCCc3nnc(NC(=O)Cc4cc(OC)cc(OC)c4)s3)s2)cc(OC)c1` [Compound 202], 180 nM.
`O=C(Cc1ccc(Cl)s1)Nc1cnc(CCSCCc2nnc(NC(=O)Cc3ccc(Cl)s3)s2)s1` [Compound 206]: the IC50 is above 20000 nM.
On the same count and under the same terms, under `O=C(Cc1cc2ccccc2s1)Nc1cnc(CCSCCc2nnc(NC(=O)Cc3cc4ccccc4s3)s2)s1` [Compound 207] stands 13000 nM; under `CC1(C)O[C@@H](C(=O)Nc2nnc(CCCCc3nnc(NC(=O)[C@@H]4OC(C)(C)O[C@H]4c4ccccc4)s3)s2)[C@H](c2ccccc2)O1` [Compound 223], above 20000 nM.
The same measure, in the same setting: under `COc1cccc(CC(=O)Nc2nnc(CCSCc3nnc(NC(=O)Cc4cccc(OC)c4)s3)s2)c1` [Compound 250] stands 120 nM.
Still for that read-out and setting: under `CCOc1ccccc1CC(=O)Nc1nnc(CCCCc2nnc(NC(=O)Cc3ccccc3OC)s2)s1` [Compound 300] stands 160 nM; under `O=C(O)Cc1cccc(CC(=O)Nc2nnc(CCCCc3nnc(NC(=O)Cc4cccc(CC(=O)O)c4)s3)s2)c1` [Compound 313], 270 nM; under `Nc1cccc(CC(=O)Nc2nnc(CCCCc3nnc(NC(=O)Cc4cccc(N)c4)s3)s2)c1` [Compound 329], 170 nM.
As to `O=C(Cc1ccccc1)Nc1ccc(CCCCc2nnc(NC(=O)Cc3cccc(O)c3)s2)nn1` [Compound 337], the IC50 amounted to 76 nM.
